# Measurements from patent publication US20130224151A1, “Use of FAAH Inhibitors for Treating Abdominal, Visceral and Pelvic Pain” (UNITED STATES OF AMERICA, priority 2010, published 2013).
# Columns and labels:
# [1] = test system: FAAH substrates (AEA, OEA, and PEA); test: Brain and GI tissue fatty acid amide levels in cortagine-induced visceral hypersensitive rats (LC-MS/MS); format: in vivo, rat
# Protocol: Rats were treated with the FAAH inhibitor URB597 [3′-(aminocarbonyl) biphenyl-3-yl cyclohexylcarbamate](3 mg/kg, SC route) or vehicle (DMSO/cremophor/isotonic saline (1:1:8 v:v:v), PO route) in the cortagine-induced visceral hypersensitivity model as described in Example 3. Briefly Male Sprague-Dawley rats were habituated to Bollman cages for 3 days. The following day, rats were anesthetized with isoflurane and a 5 cm balloon pressure sensor was inserted into the distal colon 1 cm from the anus. After 20 min, a first colorectal distension (CRD) baseline was performed (10, 20, 40, 60 mmHg, 20 s duration, 4 min inter-stimulus) and the visceromotor response (VMR) assessed. After the first CRD, rats were treated with URB597 (3 mg/kg in vehicle, SC route) or vehicle (DMSO/cremophor/isotonic saline (1:1:8 v:v:v), PO route). Two hours later, rats were treated with cortagine (10 μg/kg in vehicle, IP route). After 15 min, a second CRD was performed.
# Thirty min after the second CRD, rats were anesthetized with isoflurane, decapitated, and brains were collected rapidly, placed on sheets of aluminum foil sitting on dry ice to flash freeze. A 5 cm-long segment of jejunum and a 5 cm-long segment of ascending colon were collected, split open, dipped in ice-cold physiological saline to rinse away intestinal contents, placed on aluminum foil on top of dry ice to flash freeze. Then, brains, jejunum and ascending colon were placed in separate labeled Falcon tubes, respectively, and stored at −80° C.
# On each experimental day, one naive untreated rat (n=6 total) (not treated with test compounds, not treated with cortagine and not subjected to CRD assay), kept in normal housing and handling conditions was also euthanized and its brain, jejunum and ascending colon collected as described above. The other rats were euthanized by CO2 inhalation followed by thoracotomy.
# Levels of the endocannabinoids N-arachidonoyl-ethanolamide (AEA, anandamide), N-oleoyl-ethanolamide (OEA) and N-palmitoyl-ethanolamide (PEA) in the brain, jejunum and ascending colon were measured by LC-MS/MS.
# The fatty acid amides were extracted from the samples and standards by modifications of the method described in Richardson et al, Analytical Biochemistry, 2007, 360: 216-226, as described below.
# Intestine samples were removed from the −80° C. freezer and placed on dry ice. Each intestine sample was weighed in a clean, tared 50 mL polypropylene BD Falcon tube and placed on wet ice after recording the weight. Using a glass pipette, 7 mL of (room temp.) 9:1 ethyl acetate:hexane were added to each intestine. Then, 2.5 μL of 5 μg/mL of IS (12.5 ng, prepared as indicated below) was added to each intestine sample. One conical container was removed at a time from the wet ice and homogenized until the tissue was uniformly minced. Using a homogenizer probe, the contents were homogenized for 30 seconds; 3 mL of water were added to each intestine sample, then homogenized for an additional 15 seconds. The homogenizer probe was rinsed with water between samples and with water and 70% EtOH between dose groups. The homogenates were vortexed for ˜5 sec then centrifuged at […], 3500 rpm for 20 minutes. The ethyl acetate layer (top layer) was recovered and placed in 15 mL glass tubes. The solvent was evaporated under nitrogen (TurboVap, 55° C.) until dry and the tissue extracts were reconstituted in 0.25 mL of 1:3 CHCl3:MeOH. Then the glass tubes were placed in a 37° C. shaking water bath for 5 min and vortexed again to re-suspend them. The samples were transferred to Eppendorf tubes and centrifuged (at room temp) at 13,000 rpm for 3 min. Then, 75 μL of each sample and standard was transferred to a 96 deep well plate on wet ice, and the remaining supernatant was stored at −80° C. The samples and standards were diluted to 1:1 using a multi-channel pipette by adding 75 μL of 100 ng/mL d-4-AEA in ice-cold methanol and pipetting up and down to mix. […]
# [2] = test system: Female Wistar rats; test: Basal sensitivity to colorectal distension model; format: in vivo, rat; details: 3 mg/kg or 10 mg/kg subcutaneously; CRD measured 3 hrs 15 minutes later
# [3] = URB597 3 mg/kg SC, first trial, Student's t test
structure (smiles),measurement,setting,value
"NC(=O)c1cccc(-c2cccc(OC(=O)NC3CCCCC3)c2)c1 [URB597, 3′-(aminocarbonyl) biphenyl-3-yl cyclohexyl carbamate, reference compound]","levels of AEA, OEA and PEA in the brain, ascending colon and jejunum","[1]; URB597 3 mg/kg SC single administration, cortagine-induced visceral hypersensitive rats, first trial, 3 mg/kg",elevated levels of the three FAAH substrates
same,levels of AEA and PEA in the jejunum,[1]; [3],statistically different from those in the naïve rats
same,"levels of AEA, OEA, and PEA in the ascending colon versus vehicle treated and naïve rats",[1]; [3],statistically different from those in the vehicle treated and naïve rats
same,"levels of AEA, OEA, and PEA in the brain versus vehicle treated and naïve rats",[1]; [3],statistically different from those in the vehicle treated and naïve rats
same,levels of OEA in the jejunum,[1]; [3],statistically different from those in the vehicle treated and naïve rats
same,"levels of AEA, OEA and PEA in the brain, ascending colon and jejunum","[1]; second trial, URB597 3 mg/kg SC + cortagine 10 ug/kg IP",elevated levels of the three FAAH substrates
same,basal sensitivity to colorectal distension (number of abdominal contractions),[2],does not alter basal sensitivity
